Data: patent US7652037B2, “Methods of lowering lipid levels in a mammal” (City Of Hope, priority 2003, dated 2010)
Entries after “also recorded” stand apart in the source; their conditions may differ.

Experiments:
[1] = Hydroxyl radical production, hydroxylation of benzoate by H2O2; details: sodium benzoate + H2O2, cell-free
Method: The effects of the compounds on free radical production were evaluated in a cell-free system. In vitro hydroxyl radical production was determined by the hydroxylation of benzoate by H2O2 as described in Giardino et al., Diabetes 47:1114-1120, 1998. In brief, 30 mmol/l sodium benzoate in PBS buffer, pH 7.4, was incubated with 10 mmol/l H2O2 overnight at 37° C. alone and in the presence of various amounts of inhibitor compounds. After incubation, aliquots from each sample were analyzed for fluorescence (305 nm excitation; 408 nm emission). Results were expressed as the amount of salicylate equivalent (μM) produced by the hydroxylation of benzoate. Mannitol, a known hydroxyl radical scavenger, was included in the experiment as control.

[2] = system: STZ-Diabetic Rats; experiment: AGE immunohistochemistry of kidney (6D12 anti-CML antibody); format: in vivo, rat
Method: For immunohistochemical AGE staining, formalin-fixed […] embedded sections (2 μm thick) were mounted on slides coated with 2-aminopropyltriethoxy silane, baked for 3 hours at 58° C., deparaffinized, rinsed with 3% hydrogen peroxide, and incubated with Proteinase K (0.5 mg/mL) for 5 minutes at room temperature. These sections were washed with rinse buffer and blocked with Protein Blocking Agent for 5 minutes and subsequently incubated with 6D12 anti-AGE mouse monoclonal antibody specific for CML for 30 minutes at room temperature. After washing with rinse buffer, the sections were incubated with EnVision™ with labeled polymer peroxidase-conjugated mouse anti-IgG for 30 minutes at room temperature, followed by detection with 3,3′-diaminobenzidine tetrahydrochloride solution as chromogen and 50% hematoxylin as counterstain.

[3] = system: STZ-Diabetic Rats; experiment: Total plasma/serum triglycerides and cholesterol in STZ-diabetic rats (Example 2); format: in vivo, rat; details: 32 weeks, towards levels of non-diabetic animals
Method: Male Sprague-Dawley rats (about 175 to 200 g) were adapted for one week prior to treatment, then rendered diabetic by intra-peritoneal injection of STZ (65 mg/kg in citrate buffer, pH 4.5) after an overnight fast. Control (non-diabetic) animals were injected with the buffer only. Diabetes was confirmed by measuring the plasma glucose concentrations 7 days after Streptozotocin (STZ)-injection. Only animals with a plasma glucose concentration greater than 20 mmol were classified as diabetic and used in the study. These diabetic rats were divided randomly into an untreated diabetic control group and a diabetic treatment group. The treatment group received an LR compound at 50 mg/l in their drinking water throughout the duration of the study (32 weeks for LR-90; 30 weeks for LR-9 and LR-74). All animals were housed individually and were given free access to food and water.
Blood (from the tail vein) and urine samples were collected from rats for glycemic control analysis and albuminuria measurements. Glycemia was monitored every 8 weeks by measuring plasma glucose and glycated hemoglobin. Plasma or serum also was tested for total cholesterol and total triglycerides. Progression of renal dysfunction was assessed by measuring urinary albumin to creatinine ratio (UA/Cr) and serum or plasma creatinine. […]

[4] = system: STZ-Diabetic Rats; experiment: Kidney anatomy and histopathology (PAS, trichrome, Picrosirius red, TEM); format: in vivo, rat
From the text: To quantitate glomerulosclerosis (defined as glomerular basement membrane thickening, mesangial hypertrophy, and capillary occlusion), kidney sections were stained with periodic acid Schiff (PAS) reagent. A total of 150 glomeruli were randomly chosen from each rat kidney (four different kidneys per treatment) and carefully graded for sclerosis, by a blinded evaluator. The degree of sclerosis in each glomerulus was graded subjectively on a scale of 1 to 4 as follows: grade 1, sclerotic area less than 25%; grade 2, sclerotic area 25-50%; grade 3, sclerotic area 51-75%; and grade 4, sclerotic area more than 75%. The glomerulosclerotic index (GSI) then was calculated using the following formula: GSI=Σ^4i=1 Fi (I), where Fi is the percentage of glomeruli in the rat with a given score of (I). See Wilkinson-Berka et al., Diabetes 51:3283-3289, 2002. To quantitate glomerulosclerosis, kidney sections were stained with periodic acid Schiff (PAS) reagent.
Cellular infiltrates were identified in the renal interstitium from 5 μm-thick kidney sections stained with PAS. Infiltrates in each kidney sample were graded as follows: + (patchy and light), ++ (patchy and dense), +++ (diffuse and dense with aggregates of neutrophils in tubules or in interstitium) also in a blinded manner. For collagen deposition staining in the kidneys, paraffin sections were randomly chosen from kidneys from each treatment group and stained with Masson's trichrome. Briefly, the sections were deparaffined, hydrated with water, and immersed in Mordant in Boiuin's solution for 10 minutes. The sections then were rinsed in water and stained with Mayer's hematoxylin for 6 minutes. After rinsing in water, Biebrich scarlet-acid fuchsin was added for 2 minutes, rinsed, phosphomolybdic-phosphotungstic solution added for 15 minutes, followed by aniline blue solution for 10 minutes. After rinsing the sections with water, glacial acetic acid was added for 20 seconds and then the slides were dehydrated with 95% ethanol. With this method, blue and red colors indicate collagen and cytoplasm staining, respectively. […]

[5] = system: STZ-Diabetic Rats; experiment: Nitrotyrosine staining of kidney; format: in vivo, rat
Method: Nitrotyrosine, a marker for protein oxidation, was used as an index of oxidative tissue damage caused by reactive nitrogen species. Immunohistochemical detection of nitrotyrosine was performed as reported previously (Forbes et al., Diabetes 51:3274-3282, 2002) and followed in this study with little modification. Briefly, formalin-fixed kidney sections (5 μm thick), taken from representative rats from each treatment group at 32 weeks, were mounted on slides, dewaxed and hydrated. After incubation with Proteinase K for 10 minutes, sections were incubated in 3% hydrogen peroxide for 20 minutes, blocked with normal porcine serum for 20 minutes, and then stained with commercially available rabbit polyclonal anti-nitrotyrosine antibodies for 1 hour. After rinsing with DAKO rinse buffer, sections were incubated with biotinylated anti-rabbit IgG for 25 minutes, followed by incubation with avidin-biotin horseradish peroxidase complex for 25 minutes.

Compound | inhibition of hydroxyl radical formation [1] | AGE staining in kidney glomeruli and cortical tubules [2] | reduction of serum cholesterol [3] [%] | reduction of serum triglycerides [3] [%] | basement membrane thickening (TEM photographs) [4] | cellular infiltrates in the renal interstitium [4] | collagen deposited inside the glomeruli and the tubulointerstitium (Picrosirius red) ([4]; 32 weeks) | nitrotyrosine staining in renal cortical tubules [5]
CC(C)(Oc1ccc(NC(=O)c2ccc3ccccc3c2)cc1)C(=O)O [LR-9, 4-(2-napthylcarboxamido) phenoxyisobutyric acid] | strong inhibitors |  |  |  |  |  |  | 
CC(Oc1cccc2cccnc12)C(=O)O (stereo not drawn) [LR-74, 2-(8-quinolinoxy) propionic acid] | strong inhibitors |  |  |  |  |  |  | 
methylene bis(4,4′-(2-chlorophenylureidophenoxyisobutyric acid) [LR-90] |  | visibly reduced | 50 | 50 | reduced basement membrane thickening | prevented cell infiltration; also recorded: no neutrophils were detected | reduced | decreased the overall oxidative damage
